From US11730717B1, “Melanin-inspired antimicrobial” (The Board of Regents for the Oklahoma Agricultural and …, priority 2020, dated 2023) come the findings set out here.

“And” between values parts separate entries of the source, which are not always exact repeats. Equal entries are not always repeated. “Also recorded” adds a separate entry of the source.

Assay [1] concerns methicillin resistant Staphylococcus aureus (MRSA) clinical isolate. Description: MIC by broth microdilution. Type of assay: cell-based. The following applies: Staphylococcus aureus, MRSA, 18 h, clinical isolate of MRSA from an adult CF patient; broth culture, 18 h at 37° C.; read-out: minimum inhibitory concentration (MIC). Here is the method:
(§1) The methicillin resistant Staphylococcus aureus (MRSA) and Pseudomonas aeruginosa (PA) strains used in this study are clinical isolates obtained from an adult CF patient at the Cystic Fibrosis Clinic at the OU Children's Hospital (Oklahoma City, Okla.). Escherichia coli (E. coli) and Enterococcus faecalis (E. faecalis) were obtained from American Type Culture Collection (ATCC). The strains were grown overnight with shaking at 37° C. (220 RPM) in 15 mL of Luria-Bertani (LB) broth. The overnight culture was sub-cultured the next day before use for the MIC experiments. All sub-cultures consisted of 1 mL of the overnight culture, mixed with 10 mL of Mueller Hinton broth. The working stock of the EIPE-1 and DBI was prepared by dissolving 1 mg of each in 1 mL of DMSO.
(§2) The minimum inhibitory concentrations (MICs) were determined by the broth microdilution method, following the guidelines of the Clinical and Laboratory Standards Institute (CLSI). Two-fold serial dilutions of EIPE-1, DBI, and Arm (starting with 1 mg/mL) were prepared in a 100 μL volume in 96-well microtiter plates. The dilution series included DMSO as a negative control. The bacterial culture […] was normalized to an OD600 of 0.2 and was then added to each well. Plates were incubated with shaking at 220 RPM at 37° C., and the MIC was determined based on the lowest concentration at which no visible growth of the bacterial isolate was observed.
(§3) In order to determine the MIC of EIPE-1 on MRSA, a culture of MRSA was grown overnight in Mueller Hinton broth (MHB) at 37° C., sub-cultured by a 1/100 dilution into MHB and dispensed into a 96 well culture block (900 μL of diluted culture in each well). To each well either DMSO or a serial dilution of EIPE-1 was added, then the culture was grown for 18 h at 37° C. The next day each well was tested for either growth or inhibition of growth by measuring of the OD^600 of the resulting culture. […] For comparison, the MIC of EIPE-1 was also determined against E. faecalis (8 μg/mL, 9 μM), confirming activity against Gram-positive bacteria.
In general terms: Dilution methods test growth across graded concentrations, often in twofold steps.

Assay [2] deals with Enterococcus faecalis (E. faecalis). Description: MIC by broth microdilution. Type of assay: cell-based. On the procedure: as §1, §2, §3
In a further assay the test system is MRSA. The assay can be described thus: Scanning electron microscopy of treated bacteria. Type of assay: cell-based, Staphylococcus aureus. The following applies: 0.01 mg/mL for 30 minutes. On the procedure: MRSA was grown overnight in 10 mL of LB broth, sub-cultured (5 mL of overnight culture added to 20 mL LB) and grown for 3 h. MRSA culture (300 μL) were removed, placed into a 1.5 mL tube, and treated with DMSO or EIPE-1 (0.01 mg/mL) for 30 minutes. Each sample was placed on glass coverslips (treated with poly-L-lysine) in a 24 well plate and fixed with 2% glutaraldehyde (in 0.1 M sodium cacodylate buffer) for 2 h at room temperature. After fixation, samples were washed three times with 0.1 M sodium cacodylate buffer. Samples were then fixed with 1% osmium tetroxide in water for 1 h at room temperature and were then washed three times with 0.1 M sodium cacodylate buffer. The samples were then dehydrated with an ethanol series (once with 50%, 70%, 90%, 95% and thrice with 100% ethanol). Samples were dried using hexamethyldisilazane (HAMIDS) and then were mounted on stubs. Finally, samples were coated with gold and palladium using an automated sputter coater. Micrographs were acquired using Quanta 600 Scanning electron microscope.
To visualize potential membrane changes, DMSO and EIPE-1 treated MRSA were prepped and visualized by scanning electron microscopy (FIG. 4B). […] FIG. 4(C) contains bar charts that show the percentage of live and dead MRSA from 20 microscopy fields of view.

The subject of another assay is B. subtilts ATCC 6633. The assay can be described thus: MIC and MBC values (Table 2). The class given is cell-based. As to conditions: Bacillus subtilis, ATCC6633.
For assay [3], the system named is Candida isolates from the airways of CF patients. Description: MIC against Candida clinical isolates. Type of assay: cell-based. As to conditions: range over multiple Candida isolates from CF patients (FIG. 8). On the procedure: EIPE-1 was evaluated against multiple Candida isolates from the airways of CF patients.

For the molecule `COC(=O)c1cc2c(C#Cc3ccc(OCCC[N+](C)(C)C)cc3)c(OC)c(OC)c(C#Cc3ccc(OCCC[N+](C)(C)C)cc3)c2n1C` [EIPE-1, 3,3′-((((5,6-dimethoxy-2-(methoxycarbonyl)-1-methyl-1H-indole-4,7-diyl)bis(ethyne-2,1-diyl))bis(4,1-phenylene))bis(oxy))bis(N,N,N-trimethylpropan-1-aminium) iodide], the MIC is 16 µg/mL and 17.1 µM in assay [1]; 8 µg/mL and 9 µM in assay [2]; 1 µg/mL in the assay on B. subtilts ATCC 6633; 4 to 11 µg/mL in assay [3]. The “cell membrane appearance by SEM” value with MRSA is given as “cell membrane damage; also recorded: damaged cell membranes”. The MBC (in general, the lowest tested concentration that kills the bacteria rather than only halting them) in the assay on B. subtilts ATCC 6633 came to 1 µg/mL.
